Data taken from paper PMC8352984, “Estrogen mediates sex differences in preoptic neuropeptide and pituitary hormone production in medaka” (Communications Biology, 2021).

How the values were obtained:
Assay type in all cases: cell-based, medaka (Oryzias latipes)
medaka Adcyap1r1a = assay: Receptor activation assay, cAMP-responsive luciferase in COS-7 cells; details: for receptor activation, increase in intracellular cAMP levels (in words) / EC50: COS-7 cells; for receptor activation, increase in intracellular cAMP levels (in words): 6 h; for EC50: 6 h stimulation, 10^-11 to 10^-5 M, luciferase, triplicate, repeated three times, read-out: half-maximal effective concentration (EC50)
From the text: (§1) The number at each node indicates bootstrap values for 1000 replicates. Scale bar represents 0.1 substitutions per site. SCTR, secretin receptor. For species names and GenBank accession numbers, see Supplementary Table 2. b Ability of Pacap and Vip to activate medaka Pacap/Vip receptors. […] Representative sections of pituitary at different levels along the anterior–posterior axis are shown. Arrowheads indicate expression signals. […] Scale bars represent 50 μm. f Identity of the pituitary cells expressing each Pacap/Vip receptor. The spatial expression pattern of each receptor was compared with that of each pituitary hormone gene in the RPD and PI. Left and middle panels show images of the expression of the indicated receptor (adcyap1r1a, adcyap1r1b, or vipr2b; green) and pituitary hormone gene (sl, prl, or pomc; magenta) in the same sections; right panels show the merged images with nuclear counterstaining (blue). […] Scale bars represent 20 μm. Quantitative data were expressed as means with error bars representing standard error of the mean. […] PI pars intermedia, PPD proximal pars distalis, RPD rostral pars distalis.
(§2) Receptor activation assay was performed essentially as described previously. Medaka Pacap (38 amino acids) and Vip (28 amino acids) polypeptides with amidated C termini were synthesized by Scrum (Tokyo, Japan). cDNA fragments encoding the full-length Adcyap1r1a (GenBank accession number XM_023965124), Adcyap1r1b (XM_011474272), Vipr1a (XM_023950180), Vipr1b (XM_004079106), Vipr2a (XM_023950048) and Vipr2b (XM_023965399) were PCR-amplified and subcloned into the expression vector pcDNA3.1/V5-His-TOPO (Thermo Fisher Scientific). Each of the resulting receptor expression constructs was transiently transfected into COS-7 cells (obtained from and authenticated by Riken BRC Cell Bank), together with the cAMP-responsive luciferase reporter vector pGL4.29 (Promega) and the internal control vector pGL4.74 (Promega) at a ratio of 11:18:1 for 6 h by using Lipofectamine LTX and Plus reagent (Thermo Fisher Scientific). Forty-two hours after transfection, cells were stimulated with Pacap or Vip at doses of 0, 10^−11, 10^−10, 10^−9, 10^−8, 10^−7, 10^−6 and 10^−5 M for 6 h. After cell lysis, luciferase activity was measured by using the Dual-Luciferase Reporter Assay System (Promega). Each assay was performed in triplicate and repeated three times independently.

medaka Adcyap1r1b = assay: as above; details: for receptor activation, increase in intracellular cAMP levels (in words) / EC50: COS-7 cells; for receptor activation, increase in intracellular cAMP levels (in words): 6 h; for EC50: 6 h stimulation, 10^-11 to 10^-5 M, luciferase, triplicate, repeated three times, read-out: half-maximal effective concentration (EC50)
From the text: as §1, §2

medaka Vipr1a = assay: as above; details: for receptor activation, increase in intracellular cAMP levels (in words) / EC50: COS-7 cells; for receptor activation, increase in intracellular cAMP levels (in words): 6 h; for EC50: 6 h stimulation, 10^-11 to 10^-5 M, luciferase, triplicate, repeated three times, read-out: half-maximal effective concentration (EC50)
From the text: as §1, §2

medaka Vipr1b = assay: as above; details: for receptor activation, increase in intracellular cAMP levels (in words) / EC50: COS-7 cells; for receptor activation, increase in intracellular cAMP levels (in words): 6 h; for EC50: 6 h stimulation, 10^-11 to 10^-5 M, luciferase, triplicate, repeated three times, read-out: half-maximal effective concentration (EC50)
From the text: as §1, §2

medaka Vipr2a = assay: as above; details: for receptor activation, increase in intracellular cAMP levels (in words) / EC50: COS-7 cells; for receptor activation, increase in intracellular cAMP levels (in words): 6 h; for EC50: 6 h stimulation, 10^-11 to 10^-5 M, luciferase, triplicate, repeated three times, read-out: half-maximal effective concentration (EC50)
From the text: as §1, §2

medaka Vipr2b = assay: as above; details: for receptor activation, increase in intracellular cAMP levels (in words) / EC50: COS-7 cells; for receptor activation, increase in intracellular cAMP levels (in words): 6 h; for EC50: 6 h stimulation, 10^-11 to 10^-5 M, luciferase, triplicate, repeated three times, read-out: half-maximal effective concentration (EC50)
From the text: as §1, §2

[1] = test system: somatolactin (sl) gene expression; assay: Ex vivo pituitary organ culture, real-time PCR of sl; details: for sl expression (in words): 10^-5 M, 24 h, 25 °C, vs vehicle
From the text: (§3) Fig. 8 Pacap and Vip have pleiotropic effects on the expression of anterior pituitary hormones. The effects of Pacap and Vip on gene expression levels of follicle-stimulating hormone β subunit (fshb), luteinizing hormone β subunit (lhb), thyroid-stimulating hormone β subunit (tshb), growth hormone (gh), somatolactin (sl), prolactin (prl), and pro-opiomelanocortin (pomc) were investigated by using male and female pituitaries cultured ex vivo (n = 6 per group, except male pituitary supplemented with Vip, where n = 5). Data were expressed as means with error bars representing standard error of the mean. Statistical differences were assessed by Dunnett’s post-hoc test. *p < 0.05; **p < 0.01; ***p < 0.001.
(§4) The pituitaries from five male or female fish were pooled for each sample and cultured ex vivo in Leibovitz’s L-15 medium supplemented with 5% charcoal-stripped fetal bovine serum as described elsewhere. The medium was further supplemented with 10^−5 M medaka Pacap or Vip, or vehicle alone. After 24 h of culture at 25 °C, the pituitaries were processed for total RNA extraction and cDNA synthesis by using the RNeasy Plus Micro Kit (Qiagen) and SuperScript VILO cDNA Synthesis Kit (Thermo Fisher Scientific), respectively. Real-time PCR was performed on the LightCycler 480 System II using LightCycler 480 SYBR Green I Master (Roche Diagnostics). The cycle conditions were: 95 °C for 5 min followed by 45 cycles of 95 °C for 10 sec, 60 °C for 10 sec and 72 °C for 10 sec. Melting curve analysis was performed as described above. Data were normalized to the geometric mean of three reference genes, actb, gapdh (encoding glyceraldehyde-3-phosphate dehydrogenase; National BioResource Project (NBRP) Medaka clone ID olbrno9_f15) and rpl13 (encoding ribosomal protein L13; NBRP Medaka clone ID olovano51_b24), according to Vandesompele et al.[63]. The primers used for real-time PCR are listed in Supplementary Table 3.

[2] = test system: pro-opiomelanocortin (pomc) gene expression; assay: Ex vivo pituitary organ culture, real-time PCR of pomc; details: for pomc expression (in words): male pituitaries, 10^-5 M, 24 h, 25 °C, vs vehicle;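 for pomc expression (Fig. 8, pomc): relative expression with female control samples set to 1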
From the text: as §3, §4

vasoactive intestinal peptide [Vip]
receptor activation, increase in intracellular cAMP levels (in words) (medaka Adcyap1r1a): dose-dependently activated all six receptors
EC50 (medaka Adcyap1r1a): 32.3 nM
receptor activation, increase in intracellular cAMP levels (in words) (medaka Adcyap1r1b): dose-dependently activated all six receptors
EC50 (medaka Adcyap1r1b): 17.8 nM
potency of Pacap and Vip compared (in words) (medaka Vipr1a): fairly similar potencies
receptor activation, increase in intracellular cAMP levels (in words) (medaka Vipr1a): dose-dependently activated all six receptors
EC50 (medaka Vipr1a): 0.427 nM
receptor activation, increase in intracellular cAMP levels (in words) (medaka Vipr1b): dose-dependently activated all six receptors
EC50 (medaka Vipr1b): 0.728 nM
potency of Pacap and Vip compared (in words) (medaka Vipr2a): fairly similar potencies
receptor activation, increase in intracellular cAMP levels (in words) (medaka Vipr2a): dose-dependently activated all six receptors
EC50 (medaka Vipr2a): 2430 nM
potency of Pacap and Vip compared (in words) (medaka Vipr2b): fairly similar potencies
receptor activation, increase in intracellular cAMP levels (in words) (medaka Vipr2b): dose-dependently activated all six receptors
EC50 (medaka Vipr2b): 4310 nM
sl expression (in words) ([1]; female pituitaries): substantially increased
sl expression (Fig. 8, sl) ([1]; female, replicate 1): 2.764
sl expression (Fig. 8, sl) ([1]; female, replicate 2): 2.848
sl expression (Fig. 8, sl) ([1]; female, replicate 3): 3.893
sl expression (Fig. 8, sl) ([1]; female, replicate 4): 3.276
sl expression (Fig. 8, sl) ([1]; female, replicate 5): 2.230
sl expression (Fig. 8, sl) ([1]; female, replicate 6): 4.010
sl expression (in words) ([1]; male pituitaries): substantially increased
sl expression (Fig. 8, sl) ([1]; male, replicate 1): 2.507
sl expression (Fig. 8, sl) ([1]; male, replicate 2): 2.455
sl expression (Fig. 8, sl) ([1]; male, replicate 3): 2.960
sl expression (Fig. 8, sl) ([1]; male, replicate 5): 2.682
sl expression (Fig. 8, sl) ([1]; male, replicate 6): 1.395
pomc expression (Fig. 8, pomc) ([2]; female, replicate 1): 1.053
pomc expression (Fig. 8, pomc) ([2]; female, replicate 2): 1.048
pomc expression (Fig. 8, pomc) ([2]; female, replicate 3): 0.787
pomc expression (Fig. 8, pomc) ([2]; female, replicate 4): 1.201
pomc expression (Fig. 8, pomc) ([2]; female, replicate 5): 1.189
pomc expression (Fig. 8, pomc) ([2]; female, replicate 6): 1.854
pomc expression (in words) [2]: no significant effect
pomc expression (Fig. 8, pomc) ([2]; male, replicate 1): 3.570
pomc expression (Fig. 8, pomc) ([2]; male, replicate 2): 3.612
pomc expression (Fig. 8, pomc) ([2]; male, replicate 3): 5.174
pomc expression (Fig. 8, pomc) ([2]; male, replicate 5): 6.158
pomc expression (Fig. 8, pomc) ([2]; male, replicate 6): 3.870

Pituitary adenylate cyclase-activating polypeptide [Pacap]
receptor activation, increase in intracellular cAMP levels (in words) (medaka Adcyap1r1a): dose-dependently activated all six receptors
EC50 (medaka Adcyap1r1a): 0.245 nM
greater potency of Pacap as compared with Vip (medaka Adcyap1r1a; ratio of EC50): over 100 fold
receptor activation, increase in intracellular cAMP levels (in words) (medaka Adcyap1r1b): dose-dependently activated all six receptors
EC50 (medaka Adcyap1r1b): 0.116 nM
greater potency of Pacap as compared with Vip (medaka Adcyap1r1b; ratio of EC50): over 100 fold
potency of Pacap and Vip compared (in words) (medaka Vipr1a): fairly similar potencies
receptor activation, increase in intracellular cAMP levels (in words) (medaka Vipr1a): dose-dependently activated all six receptors
EC50 (medaka Vipr1a): 0.851 nM
receptor activation, increase in intracellular cAMP levels (in words) (medaka Vipr1b): dose-dependently activated all six receptors
EC50 (medaka Vipr1b): 14.8 nM
Pacap less potent as compared with Vip (medaka Vipr1b; ratio of EC50, Pacap is the weaker): approximately 20 fold
potency of Pacap and Vip compared (in words) (medaka Vipr2a): fairly similar potencies
receptor activation, increase in intracellular cAMP levels (in words) (medaka Vipr2a): dose-dependently activated all six receptors
EC50 (medaka Vipr2a): 3560 nM
potency of Pacap and Vip compared (in words) (medaka Vipr2b): fairly similar potencies
receptor activation, increase in intracellular cAMP levels (in words) (medaka Vipr2b): dose-dependently activated all six receptors
EC50 (medaka Vipr2b): 2780 nM
sl expression (in words) ([1]; female pituitaries): substantially increased
sl expression (Fig. 8, sl) ([1]; female, replicate 1): 5.138
sl expression (Fig. 8, sl) ([1]; female, replicate 2): 3.103
sl expression (Fig. 8, sl) ([1]; female, replicate 3): 4.426
sl expression (Fig. 8, sl) ([1]; female, replicate 4): 3.042
sl expression (Fig. 8, sl) ([1]; female, replicate 5): 2.318
sl expression (Fig. 8, sl) ([1]; female, replicate 6): 4.074
sl expression (in words) ([1]; male pituitaries): substantially increased
sl expression (Fig. 8, sl) ([1]; male, replicate 1): 1.710
sl expression (Fig. 8, sl) ([1]; male, replicate 2): 1.255
sl expression (Fig. 8, sl) ([1]; male, replicate 3): 1.415
sl expression (Fig. 8, sl) ([1]; male, replicate 4): 1.513
sl expression (Fig. 8, sl) ([1]; male, replicate 5): 0.886
sl expression (Fig. 8, sl) ([1]; male, replicate 6): 2.724
pomc expression (Fig. 8, pomc) ([2]; female, replicate 1): 1.650
pomc expression (Fig. 8, pomc) ([2]; female, replicate 2): 0.962
pomc expression (Fig. 8, pomc) ([2]; female, replicate 3): 1.174
pomc expression (Fig. 8, pomc) ([2]; female, replicate 4): 1.174
pomc expression (Fig. 8, pomc) ([2]; female, replicate 5): 1.328
pomc expression (Fig. 8, pomc) ([2]; female, replicate 6): 1.116
pomc expression (in words) [2]: reduced
pomc expression (Fig. 8, pomc) ([2]; male, replicate 1): 5.882
pomc expression (Fig. 8, pomc) ([2]; male, replicate 2): 3.434
pomc expression (Fig. 8, pomc) ([2]; male, replicate 3): 4.022
pomc expression (Fig. 8, pomc) ([2]; male, replicate 4): 3.555
pomc expression (Fig. 8, pomc) ([2]; male, replicate 5): 1.951
pomc expression (Fig. 8, pomc) ([2]; male, replicate 6): 4.484
